Test results taken from article PMC11871066, “Structure-based discovery of hydrocarbon-stapled paxillin peptides that block FAK scaffolding in cancer” (Nature Communications, 2025).

Tests used:
Test in all cases: Eurofins KINOMEscan profiling, 97 kinases
[1] = biological target: 97 kinases (kinase named in endpoint) (Homo sapiens, UniProt O00750); conditions: read-out: % Ctrl, PIK3C2B
Procedure: (§1) This experiment was performed by Eurofins KINOMEscan™ Profiling Service. […] The lysates were centrifuged and filtered, the remaining kinases were produced in HEK-293 cells and subsequently tagged with DNA for qPCR detection. […] The liganded beads were blocked with excess biotin and washed with blocking buffer (SeaBlock (Pierce), 1% BSA, 0.05% Tween-20, 1 mM DTT). […] Test compounds were prepared as 100x stocks in 100% DMSO and directly diluted into the assay. All reactions were performed in polypropylene 384-well plates in a final volume of 0.02 ml. […] The kinase concentration in the eluates was measured by qPCR.
(§2) (negative control signal - positive control signal)] x 100. ( b) AccompanyingSelectivity Scores or S -scores
(§3) which are quantitative measures of compound selectivity. They are calculated by dividing the number of
(§4) kinases that compounds bind to by the total number of distinct kinases tested, excluding mutant variants.
(§5) S(35)= ( num ber of non -mutant kinases with %Ctrl <35)/(number of non- mutant kinases tested)], S(10)=
(§6) non- mutant kinases with %Ctrl <1)/(number of non- mutant kinases tested)].

[2] = biological target: 97 kinases (kinase named in endpoint) (Homo sapiens, UniProt O14920); conditions: read-out: % Ctrl, IKK-beta
Procedure: as §1, §2, §3, §4, §5, §6

[3] = biological target: 97 kinases (kinase named in endpoint) (Homo sapiens, UniProt O60674); conditions: read-out: % Ctrl, JAK2(JH1domain-catalytic)
97 kinases (kinase named in endpoint) (Homo sapiens, UniProt O60674), sequence (O60674 whole entry): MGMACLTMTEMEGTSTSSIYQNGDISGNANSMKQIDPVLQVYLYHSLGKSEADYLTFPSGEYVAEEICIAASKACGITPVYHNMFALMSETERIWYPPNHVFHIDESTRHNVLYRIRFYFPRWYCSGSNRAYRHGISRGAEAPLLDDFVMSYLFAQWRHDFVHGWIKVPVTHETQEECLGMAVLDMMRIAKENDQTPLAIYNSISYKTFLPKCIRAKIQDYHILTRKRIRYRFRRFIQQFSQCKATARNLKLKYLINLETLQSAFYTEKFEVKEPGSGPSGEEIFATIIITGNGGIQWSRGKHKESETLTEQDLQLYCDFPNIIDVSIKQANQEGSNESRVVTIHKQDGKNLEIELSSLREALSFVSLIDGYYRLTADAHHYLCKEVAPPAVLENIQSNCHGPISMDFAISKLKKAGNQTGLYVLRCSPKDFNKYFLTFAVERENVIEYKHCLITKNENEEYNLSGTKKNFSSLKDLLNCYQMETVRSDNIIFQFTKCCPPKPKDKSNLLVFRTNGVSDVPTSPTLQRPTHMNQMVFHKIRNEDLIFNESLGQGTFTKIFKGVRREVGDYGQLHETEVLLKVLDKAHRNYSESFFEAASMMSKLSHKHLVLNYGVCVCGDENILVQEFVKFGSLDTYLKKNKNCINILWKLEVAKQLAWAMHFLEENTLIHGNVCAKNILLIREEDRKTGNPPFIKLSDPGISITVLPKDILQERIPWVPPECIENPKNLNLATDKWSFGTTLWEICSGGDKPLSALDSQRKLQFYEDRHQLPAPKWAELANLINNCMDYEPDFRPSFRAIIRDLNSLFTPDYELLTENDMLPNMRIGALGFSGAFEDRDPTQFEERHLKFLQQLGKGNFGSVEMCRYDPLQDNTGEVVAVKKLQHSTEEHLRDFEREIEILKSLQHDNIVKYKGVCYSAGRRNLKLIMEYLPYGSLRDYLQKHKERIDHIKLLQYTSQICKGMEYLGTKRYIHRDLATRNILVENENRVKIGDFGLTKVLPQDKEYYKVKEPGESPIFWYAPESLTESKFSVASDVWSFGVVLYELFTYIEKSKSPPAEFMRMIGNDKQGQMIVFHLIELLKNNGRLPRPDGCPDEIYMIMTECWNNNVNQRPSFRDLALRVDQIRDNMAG
Procedure: as §1, §2, §3, §4, §5, §6

[4] = biological target: 97 kinases (kinase named in endpoint) (Homo sapiens, UniProt O75116); conditions: read-out: % Ctrl, ROCK2
Procedure: as §1, §2, §3, §4, §5, §6

[5] = biological target: 97 kinases (kinase named in endpoint) (Homo sapiens, UniProt P00519, E255K); conditions: read-out: % Ctrl, ABL1(E255K)-phosphorylated
Procedure: as §1, §2, §3, §4, §5, §6

[6] = biological target: 97 kinases (kinase named in endpoint) (Homo sapiens, UniProt P00519, T315I); conditions: read-out: % Ctrl, ABL(T315I)-phosphorylated
Procedure: as §1, §2, §3, §4, §5, §6

[7] = biological target: 97 kinases (kinase named in endpoint) (Homo sapiens, UniProt P07333); conditions: read-out: % Ctrl, CSF1R
97 kinases (kinase named in endpoint) (Homo sapiens, UniProt P07333), sequence (P07333 20-972): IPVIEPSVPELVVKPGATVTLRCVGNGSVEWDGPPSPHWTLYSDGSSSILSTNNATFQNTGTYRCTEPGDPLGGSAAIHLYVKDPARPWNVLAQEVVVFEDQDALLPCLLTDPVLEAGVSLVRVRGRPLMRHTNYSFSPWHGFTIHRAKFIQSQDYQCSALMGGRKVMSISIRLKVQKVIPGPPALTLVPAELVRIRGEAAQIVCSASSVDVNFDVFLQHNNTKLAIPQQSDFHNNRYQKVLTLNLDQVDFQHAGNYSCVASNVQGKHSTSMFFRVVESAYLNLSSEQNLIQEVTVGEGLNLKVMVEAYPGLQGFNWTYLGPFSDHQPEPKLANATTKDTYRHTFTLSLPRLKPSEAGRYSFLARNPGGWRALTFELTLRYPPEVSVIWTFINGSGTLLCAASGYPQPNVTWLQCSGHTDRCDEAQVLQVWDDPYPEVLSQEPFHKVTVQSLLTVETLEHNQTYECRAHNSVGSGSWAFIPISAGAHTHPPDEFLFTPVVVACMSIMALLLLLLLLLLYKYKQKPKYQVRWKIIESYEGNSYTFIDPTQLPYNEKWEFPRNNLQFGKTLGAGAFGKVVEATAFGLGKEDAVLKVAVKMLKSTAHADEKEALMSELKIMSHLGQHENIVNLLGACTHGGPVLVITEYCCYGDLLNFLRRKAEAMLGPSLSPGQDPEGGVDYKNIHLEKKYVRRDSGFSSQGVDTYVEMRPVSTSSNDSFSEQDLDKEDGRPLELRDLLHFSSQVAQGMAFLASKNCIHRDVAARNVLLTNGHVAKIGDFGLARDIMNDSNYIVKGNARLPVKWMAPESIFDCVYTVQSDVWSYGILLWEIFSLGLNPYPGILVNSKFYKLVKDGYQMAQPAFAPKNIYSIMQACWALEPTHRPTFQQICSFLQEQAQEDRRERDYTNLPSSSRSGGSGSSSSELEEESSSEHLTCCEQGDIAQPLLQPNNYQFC
Procedure: as §1, §2, §3, §4, §5, §6

[8] = biological target: 97 kinases (kinase named in endpoint) (Homo sapiens, UniProt P24941); conditions: read-out: % Ctrl, CDK2
Procedure: as §1, §2, §3, §4, §5, §6

[9] = biological target: 97 kinases (kinase named in endpoint) (Homo sapiens, UniProt P27448); conditions: read-out: % Ctrl, MARK3
97 kinases (kinase named in endpoint) (Homo sapiens, UniProt P27448), sequence (P27448 whole entry): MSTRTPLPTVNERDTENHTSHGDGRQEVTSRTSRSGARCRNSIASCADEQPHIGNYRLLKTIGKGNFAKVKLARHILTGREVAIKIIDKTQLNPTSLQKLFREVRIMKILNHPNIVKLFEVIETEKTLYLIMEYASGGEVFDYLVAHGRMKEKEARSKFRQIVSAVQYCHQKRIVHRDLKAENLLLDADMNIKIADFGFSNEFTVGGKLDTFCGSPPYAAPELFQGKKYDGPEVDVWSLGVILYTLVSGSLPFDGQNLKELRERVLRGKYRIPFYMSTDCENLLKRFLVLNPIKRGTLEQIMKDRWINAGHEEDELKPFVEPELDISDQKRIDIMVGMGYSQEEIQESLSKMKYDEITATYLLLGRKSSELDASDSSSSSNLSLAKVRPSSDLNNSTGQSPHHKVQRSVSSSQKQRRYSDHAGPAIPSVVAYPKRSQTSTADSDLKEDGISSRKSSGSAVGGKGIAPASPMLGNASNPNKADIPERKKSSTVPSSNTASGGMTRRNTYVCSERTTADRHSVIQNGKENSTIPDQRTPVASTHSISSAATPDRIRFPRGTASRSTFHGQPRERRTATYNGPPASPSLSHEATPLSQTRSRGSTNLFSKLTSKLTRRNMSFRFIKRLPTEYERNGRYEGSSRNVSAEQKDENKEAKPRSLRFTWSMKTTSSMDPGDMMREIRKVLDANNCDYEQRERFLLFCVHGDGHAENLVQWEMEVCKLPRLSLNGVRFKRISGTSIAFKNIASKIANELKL
Procedure: as §1, §2, §3, §4, §5, §6

[10] = biological target: 97 kinases (kinase named in endpoint) (Homo sapiens, UniProt P30530); conditions: read-out: % Ctrl, AXL
Procedure: as §1, §2, §3, §4, §5, §6

[11] = biological target: 97 kinases (kinase named in endpoint) (Homo sapiens, UniProt P31749); conditions: read-out: % Ctrl, AKT1
Procedure: as §1, §2, §3, §4, §5, §6

[12] = biological target: 97 kinases (kinase named in endpoint) (Homo sapiens, UniProt P36897); conditions: read-out: % Ctrl, TGFBR1
Procedure: as §1, §2, §3, §4, §5, §6

[13] = biological target: 97 kinases (kinase named in endpoint) (Homo sapiens, UniProt P43403); conditions: read-out: % Ctrl, ZAP70
Procedure: as §1, §2, §3, §4, §5, §6

[14] = biological target: 97 kinases (kinase named in endpoint) (Homo sapiens, UniProt P45984); conditions: read-out: % Ctrl, JNK2
Procedure: as §1, §2, §3, §4, §5, §6

[15] = biological target: 97 kinases (kinase named in endpoint) (Homo sapiens, UniProt P49137); conditions: read-out: % Ctrl, MAPKAPK2
97 kinases (kinase named in endpoint) (Homo sapiens, UniProt P49137), sequence (P49137 whole entry): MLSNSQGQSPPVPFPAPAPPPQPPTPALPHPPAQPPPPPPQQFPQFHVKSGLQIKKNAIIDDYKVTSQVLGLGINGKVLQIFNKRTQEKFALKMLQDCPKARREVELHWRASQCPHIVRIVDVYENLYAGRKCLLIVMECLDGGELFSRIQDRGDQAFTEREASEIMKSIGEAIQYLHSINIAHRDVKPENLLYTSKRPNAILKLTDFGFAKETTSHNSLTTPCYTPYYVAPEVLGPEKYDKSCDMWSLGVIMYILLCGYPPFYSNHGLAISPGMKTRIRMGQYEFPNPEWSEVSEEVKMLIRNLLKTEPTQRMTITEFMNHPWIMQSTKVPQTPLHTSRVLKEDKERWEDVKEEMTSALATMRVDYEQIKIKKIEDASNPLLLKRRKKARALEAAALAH
Procedure: as §1, §2, §3, §4, §5, §6

[16] = biological target: 97 kinases (kinase named in endpoint) (Homo sapiens, UniProt P53779); conditions: read-out: % Ctrl, JNK3
Procedure: as §1, §2, §3, §4, §5, §6

[17] = biological target: 97 kinases (kinase named in endpoint) (Homo sapiens, UniProt Q00536); conditions: read-out: % Ctrl, PCTK1
Procedure: as §1, §2, §3, §4, §5, §6

[18] = biological target: 97 kinases (kinase named in endpoint) (Homo sapiens, UniProt Q02156); conditions: read-out: % Ctrl, PRKCE
Procedure: as §1, §2, §3, §4, §5, §6

[19] = biological target: 97 kinases (kinase named in endpoint) (Homo sapiens, UniProt Q02750); conditions: read-out: % Ctrl, MEK1
Procedure: as §1, §2, §3, §4, §5, §6

[20] = biological target: 97 kinases (kinase named in endpoint) (Homo sapiens, UniProt Q05397); conditions: read-out: % Ctrl, FAK
Procedure: as §1, §2, §3, §4, §5, §6

[21] = biological target: 97 kinases (kinase named in endpoint) (Homo sapiens, UniProt Q06187); conditions: read-out: % Ctrl, BTK
97 kinases (kinase named in endpoint) (Homo sapiens, UniProt Q06187), sequence (Q06187 whole entry): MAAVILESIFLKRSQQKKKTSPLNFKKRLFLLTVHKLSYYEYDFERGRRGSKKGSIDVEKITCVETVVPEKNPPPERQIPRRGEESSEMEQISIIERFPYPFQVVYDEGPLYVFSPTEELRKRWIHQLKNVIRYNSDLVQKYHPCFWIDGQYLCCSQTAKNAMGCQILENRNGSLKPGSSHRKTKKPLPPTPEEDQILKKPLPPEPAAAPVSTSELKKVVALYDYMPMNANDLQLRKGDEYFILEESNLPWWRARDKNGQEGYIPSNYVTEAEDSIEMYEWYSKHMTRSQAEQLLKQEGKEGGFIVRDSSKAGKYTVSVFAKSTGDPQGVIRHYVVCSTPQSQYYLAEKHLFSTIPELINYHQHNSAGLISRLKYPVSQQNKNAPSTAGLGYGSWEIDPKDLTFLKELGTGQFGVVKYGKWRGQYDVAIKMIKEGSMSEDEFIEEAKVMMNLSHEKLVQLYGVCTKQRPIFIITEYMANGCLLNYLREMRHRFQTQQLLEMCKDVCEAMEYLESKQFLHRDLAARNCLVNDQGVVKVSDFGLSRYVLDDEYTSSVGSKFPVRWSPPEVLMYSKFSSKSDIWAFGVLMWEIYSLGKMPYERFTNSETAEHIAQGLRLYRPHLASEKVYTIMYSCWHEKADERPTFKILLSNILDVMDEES
Procedure: as §1, §2, §3, §4, §5, §6

[22] = biological target: 97 kinases (kinase named in endpoint) (Homo sapiens, UniProt Q13873); conditions: read-out: % Ctrl, BMPR2
Procedure: as §1, §2, §3, §4, §5, §6

[23] = biological target: 97 kinases (kinase named in endpoint) (Homo sapiens, UniProt Q86V86); conditions: read-out: % Ctrl, PIM3
Procedure: as §1, §2, §3, §4, §5, §6

[24] = biological target: 97 kinases (kinase named in endpoint) (Homo sapiens, UniProt Q8NI60); conditions: read-out: % Ctrl, ADCK3
Procedure: as §1, §2, §3, §4, §5, §6

[25] = biological target: 97 kinases (kinase named in endpoint) (Homo sapiens, UniProt Q9BUB5); conditions: read-out: % Ctrl, MKNK1
97 kinases (kinase named in endpoint) (Homo sapiens, UniProt Q9BUB5), sequence (Q9BUB5 whole entry): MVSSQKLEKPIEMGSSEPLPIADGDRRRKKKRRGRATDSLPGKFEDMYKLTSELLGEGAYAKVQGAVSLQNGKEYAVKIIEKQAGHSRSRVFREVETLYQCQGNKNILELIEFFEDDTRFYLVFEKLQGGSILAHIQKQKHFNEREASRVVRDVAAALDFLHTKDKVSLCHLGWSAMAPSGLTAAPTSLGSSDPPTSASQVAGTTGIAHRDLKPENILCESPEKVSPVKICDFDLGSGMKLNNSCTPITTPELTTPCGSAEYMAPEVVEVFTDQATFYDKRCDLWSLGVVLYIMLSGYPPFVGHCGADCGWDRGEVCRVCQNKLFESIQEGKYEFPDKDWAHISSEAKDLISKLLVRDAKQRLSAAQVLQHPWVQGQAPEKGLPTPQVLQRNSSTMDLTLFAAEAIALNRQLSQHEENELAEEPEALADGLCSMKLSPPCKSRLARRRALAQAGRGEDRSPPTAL
Procedure: as §1, §2, §3, §4, §5, §6

[26] = biological target: 97 kinases (kinase named in endpoint) (Homo sapiens, UniProt Q9BVS4); conditions: read-out: % Ctrl, RIOK2
97 kinases (kinase named in endpoint) (Homo sapiens, UniProt Q9BVS4), sequence (Q9BVS4 whole entry): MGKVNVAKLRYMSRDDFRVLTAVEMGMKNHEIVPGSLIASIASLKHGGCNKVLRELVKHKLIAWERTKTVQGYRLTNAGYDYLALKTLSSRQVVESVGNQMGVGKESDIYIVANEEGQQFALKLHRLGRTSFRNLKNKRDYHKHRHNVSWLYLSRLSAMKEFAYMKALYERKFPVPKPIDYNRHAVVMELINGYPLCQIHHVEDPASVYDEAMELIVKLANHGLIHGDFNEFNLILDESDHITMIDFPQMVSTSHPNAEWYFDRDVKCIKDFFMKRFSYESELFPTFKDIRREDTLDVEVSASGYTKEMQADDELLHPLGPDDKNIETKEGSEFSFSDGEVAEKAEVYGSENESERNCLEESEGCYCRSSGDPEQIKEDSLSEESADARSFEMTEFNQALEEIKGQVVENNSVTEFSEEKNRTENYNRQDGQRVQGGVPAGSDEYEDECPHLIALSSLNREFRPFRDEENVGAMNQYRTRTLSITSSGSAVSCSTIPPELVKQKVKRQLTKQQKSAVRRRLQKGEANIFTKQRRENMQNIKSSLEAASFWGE
Procedure: as §1, §2, §3, §4, §5, §6

[27] = biological target: 97 kinases (kinase named in endpoint) (Homo sapiens, UniProt Q9BXA7); conditions: read-out: % Ctrl, TSSK1B
Procedure: as §1, §2, §3, §4, §5, §6

[28] = biological target: 97 kinases (kinase named in endpoint) (Homo sapiens, UniProt Q9Y463); conditions: read-out: % Ctrl, DYRK1B
Procedure: as §1, §2, §3, §4, §5, §6

SMILES | remaining binding at 1 µM [1] [%] | remaining binding at 1 µM [2] [%] | remaining binding at 1 µM [3] [%] | remaining binding at 1 µM [4] [%] | remaining binding at 1 µM [5] [%] | remaining binding at 1 µM [6] [%] | remaining binding at 1 µM [7] [%] | remaining binding at 1 µM [8] [%] | remaining binding at 1 µM [9] [%] | remaining binding at 1 µM [10] [%] | remaining binding at 1 µM [11] [%] | remaining binding at 1 µM [12] [%] | remaining binding at 1 µM [13] [%] | remaining binding at 1 µM [14] [%] | remaining binding at 1 µM [15] [%] | remaining binding at 1 µM [16] [%] | remaining binding at 1 µM [17] [%] | remaining binding at 1 µM [18] [%] | remaining binding at 1 µM [19] [%] | remaining binding at 1 µM [20] [%] | other results
CCCCCCCCCCCCCC(=O)N[C@@H](CC(N)=O)C(=O)N[C@@H](CC(C)C)C(=O)N[C@]1(C)CCCCCCC=CCCC[C@@](C)(C(=O)N[C@@H](CCC(=O)O)C(=O)N[C@@H](CC(C)C)C(=O)N[C@@H](CC(N)=O)C(N)=O)NC(=O)[C@H](CC(C)C)NC(=O)[C@H](CC(C)C)NC(=O)[C@H](CCCNC(=N)N)NC(=O)[C@H](CC(=O)O)NC(=O)[C@H](CC(C)C)NC(=O)[C@H](CCC(=O)O)NC1=O [compound 2012] | 100 | 100 | 87 | 100 | 70 | 100 | 95 | 88 | 91 | 74 | 100 | 93 | 96 | 100 | 100 | 100 | 100 | 53 | 94 | 96 | remaining binding at 1 µM [21]: 100%; remaining binding at 1 µM [22]: 100%; remaining binding at 1 µM [23]: 100%; remaining binding at 1 µM [24]: 100%; remaining binding at 1 µM [25]: 100%; remaining binding at 1 µM [26]: 91%; remaining binding at 1 µM [27]: 98%; remaining binding at 1 µM [28]: 91%
CNC(=O)c1ccc(Nc2ncc(C(F)(F)F)c(NCc3nccnc3N(C)S(C)(=O)=O)n2)cc1 [defactinib] | 100 | 100 | 0.1 | 43 | 82 | 4.9 | 72 | 63 | 50 | 3.6 | 100 | 91 | 95 | 52 | 100 | 90 | 48 | 42 | 83 | 0.1 | remaining binding at 1 µM [21]: 100%; remaining binding at 1 µM [22]: 25%; remaining binding at 1 µM [23]: 40%; remaining binding at 1 µM [24]: 93%; remaining binding at 1 µM [25]: 100%; remaining binding at 1 µM [26]: 50%; remaining binding at 1 µM [27]: 82%; remaining binding at 1 µM [28]: 14%
